In the assay the test system is tumor cell line Dunning R3327-G. Description: Tumor reduction in Copenhagen rats implanted with tumor cell line Dunning R3327-G (tumor weight at sacrifice). The assay is classed as in vivo. As to conditions: three months following the tumor line implant. As for the experimental part: Tumor cell line Dunning R3327-G was implanted into 9-12 weeks old Copenhagen rats (with approximately 100 g of body weight each), which were subjected to different treatments with 2×10^6 cell density per animal in implant medium (RPMI 1640, serum-free in 0.5 ml), on the laxed area of the flanks. One hundred percent attachment efficiency was accomplished in the animals after 90 days.
Eight groups of ten animals each one were formed for the experiment, with Copenhagen rats as described before. […]
DES treatment was made on and off, three times a week at a rate of 1 mg/kg/day, as long as the experiment lasted; and it started once the cells were inoculated. […] (1) The expected effect (Etheoretical) in the case of double combination formulations can be calculated in case either effect is not mutually excluding (Caridad W., Guerra Bustillo, Ernesto Menendez Acuna, Rolando Barrera Morena, Esteban Egana Morales. “Estadistica”, Editorial Pueblo y Educacion, 1989), according to: Etheoretical=ET1+ET2−(ET1*ET2). […]

Regarding `CC/C(=C(/CC)c1ccc(O)cc1)c1ccc(O)cc1` [DES, dietilestilbestrol], the “Treatment effect. Etreatment=1-(Ptreatment/Pplacebo)” value (relative to placebo mean tumor weight) was 0.597. Under “tumor dried and weighed”, the “Tumor weight (g) (Mean of ten animals)” value is 12.66 g.
